The subject of assay [1] is Hot pepper (Variety: Pungcheon). Description: Serotonin sprayed on hot pepper sarcocarps; serotonin derivative content by HPLC. Format: in vivo. The procedure:
Hot pepper (Variety: Pungcheon) was treated with serotonin to investigate biosynthesis of serotonin derivatives.
Serotonin solution (prepared by dissolving serotonin in water to make 1 mM concentration) was sprayed on sarcocarps of hot pepper at the rate of 10,000 L/ha. 72 hours after spraying, sarcocarps were taken to investigate the content of serotonin derivatives, for which the same method in the Example 1 was used. Sarcocarps of hot pepper not treated with serotonin were used as a control.

In a further assay the test system is hot pepper THT enzyme. Description: In vitro enzyme reaction of purified hot pepper THT with serotonin, product by HPLC. The assay is classed as biochemical, hot pepper (Capsicum annuum). The protocol:
In order to confirm whether hot pepper THT enzyme could use serotonin as an amine substrate, hot pepper THT protein, in which 6 histidines were attached on carboxy-terminal, was purified by affinity chromatography (Back et al., Plant Cell Physiol. 42, 475-481, 2001) and used for the experiment. Particularly, 1 μg of the purified hot pepper THT enzyme, 1 mM of feruloyl-CoA (Sigma-Aldrich, Korea) and 10 mM of serotonin (Sigma-Aldrich, Korea) were mixed together, followed by an enzyme reaction at 30° C. for 10 minutes. Upon completing the reaction, the reaction product was analyzed by HPLC.

Assay [2] deals with Rice plants (Variety: Nakdong). Description: Soil treatment of rice with inducers; serotonin derivative content in seeds by HPLC. The assay is classed as in vivo. The procedure: Rice plants (Variety: Nakdong) having been cultivated in the rice field were treated with inducers for serotonin derivative biosynthesis and then biosynthesis of the serotonin derivatives was investigated.
Inducers for serotonin derivative biosynthesis were prepared by dissolving tyramine, tryptamine, cinnamic acid, coumaric acid, caffeic acid and ferulic acid (Sigma-Aldrich, Korea) in water respectively to make each concentration 100 μM. And then the soil where rice plants (about 40 days after heading) had been growing was treated once with each inducer for serotonin derivative biosynthesis at the rate of 300,000 L/ha, followed by further cultivation for 20 days.
As a control group, rice plant which had been cultivated under the same conditions except the treatment with inducers for serotonin derivative biosynthesis was used.
After harvesting rice, seeds of the rice were peeled to obtain brown rice. N-(hydroxycinnamoyl)-amines were extracted from 1 g of the brown rice by known method (Ishihara et al., Biosci. Biotechnol. Biochem. 64, 1025-1031, 2000), and then, HPLC was performed.
Coumaroylserotonin and feruloylserotonin included in the extract of seeds of rice, treated with inducers for serotonin derivative biosynthesis, were quantified by HPLC using a standard substance synthesized by a well-known method (Villegas & Brodelius, Physiol. Plant. 78, 414-420, 1990).

The test system of assay [3] is Hot pepper (Variety: Pungcheon). In words: Soil treatment of hot pepper with inducers; serotonin derivative content in sarcocarps by HPLC. The assay is classed as in vivo. The protocol: Hot pepper (Variety: Pungcheon) was treated with inducers for serotonin derivative biosynthesis, followed by an examination of biosynthesis of serotonin derivatives.
Particularly, inducers for serotonin derivative biosynthesis were prepared by dissolving tyramine, tryptamine, cinnamic acid, coumaric acid, caffeic acid and ferulic acid in water respectively to make each concentration 100 μM. And then the soil where rice plants (about 40 days after heading) had been growing was treated once with each inducer for serotonin derivative biosynthesis at the rate of 300,000 L/ha, followed by further cultivation for 20 days.
The ripe sarcocarps of hot peppers were obtained to investigate the content of serotonin derivatives by the same method as used in the above Example <1-1>. Control group hot pepper was cultivated under the same condition as the experimental group hot pepper except the treatment with inducers for serotonin derivative biosynthesis.

Assay [4] relates to transgenic rice plants over-expressing THT. In words: Transgenic rice grown in medium with tyramine or coumaric acid; content in leaves and stems. The assay is classed as in vivo. Particulars: for Coumaroyl serotonin / Feruloyl serotonin / Total content of serotonin derivatives: medium with 50 μM tyramine, 2 weeks.
In assay [5] the test system is transgenic rice plants (T14) over-expressing THT. Description: Soil treatment of transgenic rice T14 with inducers; serotonin derivative content in seeds. Format: in vivo. The procedure: Among T2 generations of transgenic rice plants, T14 was transplanted in the soil, to which inducers for serotonin derivative biosynthesis were treated. After cultivation, the contents of serotonin derivatives in seeds of the transgenic rice plants were investigated.
As inducers for serotonin derivative biosynthesis, tyramine, tryptamine, cinnamic acid, coumaric acid, caffeic acid and ferulic acid were used. Precisely, the inducers for serotonin derivative biosynthesis were dissolved in water, making each concentration 100 μM. Then, the solutions were added at the rate of 300,000 L/ha, to the soil where rice plants (about 40 days after heading) were growing. The plants were cultivated for 20 more days.
The seeds of the plants cultivated above were collected, and the content of serotonin derivatives in them was investigated with the same method as used in the Example <1-1>, which was compared with that in seeds of wild type control rice plants.

Assay [6] deals with wild type control rice plants. Description: Wild-type control rice grown in medium with tyramine; content in leaves and stems. The assay is classed as in vivo. As to conditions: Wild-type control (W); medium with 50 μM tyramine, 2 weeks. The protocol:
(§1) It was investigated whether serotonin derivatives was biosynthesized in transgenic rice plants over-expressing THT when cultivated in a medium supplemented with serotonin inducers, tyramine or coumaric acid. T2 generations of the transgenic rice seeds were sown on MS medium (Duchefa Biochemie, Netherlands) supplemented with 50 μM of tyramine or coumaric acid, substrates of hot pepper THT enzyme, which were then further cultured in a sterilized condition with 12 hour light and 12 hour dark cycle. 2 weeks later, hydroxycinnamoyl amines were extracted from leaves of T2 generations of transgenic rice plants and wild type control rice plants, respectively, according to the same procedure as used in the above Example <1-1>, then, HPLC was performed for analysis.

The test system of a further assay is transgenic control rice. In words: Transgenic control rice (pGA1611 vector without THT gene) grown in medium with tyramine; content in leaves and stems. The assay is classed as in vivo. As to conditions: Transgenic control (TC); medium with 50 μM tyramine, 2 weeks. The procedure:
In the meantime, transgenic control rice was prepared by transfecting rice plant with pGA1611 vector without hot pepper THT gene, and other preparation procedures for a control were the same as for an experimental group.
as §1

The subject of the next assay is potato THT. As to conditions: coumaroyl-CoA used as a substrate instead of feruloyl-CoA; cited from earlier work.
Assay [7] deals with recombinant hot pepper THT. As to conditions: amine substrates; cited from earlier work.
The mark [8] stands for this setting: sarcocarps of hot pepper, 1 mM serotonin sprayed, 10,000 L/ha, 72 hours.
Setting [9] is: inducer 100 μM to soil, 300,000 L/ha, 20 days.
Setting [10] is: Mean of transgenic rice lines T9-T17.
Setting [11] is: seeds of transgenic rice T14, inducer 100 μM to soil, 300,000 L/ha, 20 days.

Entries after “also recorded” stand apart in the source; their conditions may differ.

As for `NCCc1c[nH]c2ccc(O)cc12` [Serotonin, serotonin], the Serotonin derivatives detected result in assay [1] (sarcocarps of hot pepper treated with serotonin, in words) is given as “a large amount; also recorded: detected a lot”. In addition, in [1] (setting [8]), the “Content of serotonin derivatives: Coumaroyl Serotonin” value is 1538 ng/1 g sarcocarps, the “Content of serotonin derivatives: Feruloyl serotonin” value was determined as 1028 ng/1 g sarcocarps and the “Content of serotonin derivatives: Total content” value is on record as 2566 ng/1 g sarcocarps. The “Serotonin used as amine substrate, product feruloylserotonin” value in the assay with hot pepper THT enzyme (1 μg THT, 1 mM feruloyl-CoA, 10 mM serotonin, 30° C., 10 minutes) is “uses serotonin as an amine substrate; also recorded: biosynthesis of feruloylserotonin was confirmed”. Moreover, the “Serotonin used as amine substrate, product coumaroylserotonin” value in the assay on hot pepper THT enzyme (coumaroyl-CoA and serotonin as substrates (not shown)) was “synthesized coumaroylserotonin; also recorded: biosynthesis of coumaroylserotonin by hot pepper THT enzyme was also confirmed”.

For the compound `NCCc1ccc(O)cc1` [Tyramine, tyramine], the “Rank of inducers by serotonin derivatives produced” value is listed as “second most” in [2] (in words) and “third most” in assay [3] (in words). Also, the “Content of serotonin derivatives: Coumaroyl Serotonin” value in assay [2] (setting [9]) is recorded as 19 ng/1 g seed; in [3] (setting [9]), 150 ng/1 g sarcocarps. Also, the entries for the “Content of serotonin derivatives: Feruloyl serotonin” value in [2] (setting [9]) and in assay [3] (setting [9]) were 54 ng/1 g seed and 210 ng/1 g sarcocarps, respectively. For the same compound, the “Content of serotonin derivatives: Total content” value in assay [2] (setting [9]) is 73 ng/1 g seed; in assay [3] (setting [9]), 360 ng/1 g sarcocarps. For the same compound, the Coumaroyl serotonin in [4] (setting [10]) was 78 μg/g leaves and stems; in [4] (Transgenic rice T9) it was 24 μg/g leaves and stems; in assay [4] (Transgenic rice T10), 86 μg/g leaves and stems; in assay [4] (Transgenic rice T13), 224 μg/g leaves and stems; in assay [4] (Transgenic rice T14), 46 μg/g leaves and stems; in [4] (Transgenic rice T16) it was 50 μg/g leaves and stems. Moreover, the Coumaroyl serotonin in assay [4] (Transgenic rice T17) was 36 μg/g leaves and stems; in assay [6], 0 μg/g leaves and stems; with transgenic control rice, 0 μg/g leaves and stems. Besides, the Feruloyl serotonin in assay [4] (setting [10]) is 96 μg/g leaves and stems; in assay [4] (Transgenic rice T9) it was 24 μg/g leaves and stems; in assay [4] (Transgenic rice T10), 114 μg/g leaves and stems; in assay [4] (Transgenic rice T13), 200 μg/g leaves and stems; in assay [4] (Transgenic rice T14) it was 78 μg/g leaves and stems; in [4] (Transgenic rice T16), 70 μg/g leaves and stems. In addition, the Feruloyl serotonin in [4] (Transgenic rice T17) is 92 μg/g leaves and stems; in assay [6], 1 μg/g leaves and stems; in the assay on transgenic control rice, 1 μg/g leaves and stems. The “Total content of serotonin derivatives” value in assay [4] (setting [10]) was 174 μg/g leaves and stems; in [4] (Transgenic rice T9) it was 48 μg/g leaves and stems; in assay [4] (Transgenic rice T10), 200 μg/g leaves and stems; in assay [4] (Transgenic rice T13), 424 μg/g leaves and stems; in assay [4] (Transgenic rice T14), 124 μg/g leaves and stems; in assay [4] (Transgenic rice T16), 120 μg/g leaves and stems. The “Total content of serotonin derivatives” value in [4] (Transgenic rice T17) was 128 μg/g leaves and stems; in assay [6] it was 1 μg/g leaves and stems; in the assay on transgenic control rice, 1 μg/g leaves and stems. The “Coumaroyltyramine and feruloyltyramine in the extract” value in assay [4] (transgenic rice in medium with 50 μM tyramine or coumaric acid, HPLC) is reported as “neither coumaroyltyramine nor feruloyltyramine”. Further, the “Content of serotonin derivative: Coumaroyl serotonin” value in assay [5] (setting [11]) turned out to be 314 ng/g seeds. In [5] (setting [11]), the “Content of serotonin derivative: Feruloyl serotonin” value was found to be 684 ng/g seeds. The “Content of serotonin derivative: Total content” value in [5] (setting [11]) is on record as 998 ng/g seeds. The “Rank of inducers by content of serotonin derivatives” value in assay [5] (seeds of transgenic rice plants, in words) is “the highest”. The “Increase of substrate specificity to tyramine” value in the assay with potato THT is on record as “more than 10 times”. The “Maximum reaction velocity (Vmax) relative to octopamine” value in [7] is listed as 1.5 fold.

The values are drawn from patent US20040268437A1, “Method for biosynthesizing the serotonin derivatives in plants” (CHONNAM NATIONAL UNIVERSITY, priority 2003, published 2004).
